Test results: patent publication US20230096380A1, “COMPOUNDS, COMPOSITIONS, METHODS FOR TREATING DISEASES AND NERVE DAMAGE, AND METHODS FOR PREPARING COMPOUNDS” (CHILDREN'S HOSPITAL MEDICAL CENTER, priority 2020, published 2023)
“Also recorded” adds a separate entry of the source.

What was measured:
p300 = molecular target: T1, p300 (Rattus norvegicus, UniProt A0ABK0LGW0); assay: p300 activity inhibition (FIG. 2)
T1 construct: Isolated rat OPCs were grown in Sato growth medium; endogenous in cells; host or cells: primary rat oligodendrocyte progenitor cells (OPCs) from newborn rat brain
T1 sequence (A0ABK0LGW0 1-2423): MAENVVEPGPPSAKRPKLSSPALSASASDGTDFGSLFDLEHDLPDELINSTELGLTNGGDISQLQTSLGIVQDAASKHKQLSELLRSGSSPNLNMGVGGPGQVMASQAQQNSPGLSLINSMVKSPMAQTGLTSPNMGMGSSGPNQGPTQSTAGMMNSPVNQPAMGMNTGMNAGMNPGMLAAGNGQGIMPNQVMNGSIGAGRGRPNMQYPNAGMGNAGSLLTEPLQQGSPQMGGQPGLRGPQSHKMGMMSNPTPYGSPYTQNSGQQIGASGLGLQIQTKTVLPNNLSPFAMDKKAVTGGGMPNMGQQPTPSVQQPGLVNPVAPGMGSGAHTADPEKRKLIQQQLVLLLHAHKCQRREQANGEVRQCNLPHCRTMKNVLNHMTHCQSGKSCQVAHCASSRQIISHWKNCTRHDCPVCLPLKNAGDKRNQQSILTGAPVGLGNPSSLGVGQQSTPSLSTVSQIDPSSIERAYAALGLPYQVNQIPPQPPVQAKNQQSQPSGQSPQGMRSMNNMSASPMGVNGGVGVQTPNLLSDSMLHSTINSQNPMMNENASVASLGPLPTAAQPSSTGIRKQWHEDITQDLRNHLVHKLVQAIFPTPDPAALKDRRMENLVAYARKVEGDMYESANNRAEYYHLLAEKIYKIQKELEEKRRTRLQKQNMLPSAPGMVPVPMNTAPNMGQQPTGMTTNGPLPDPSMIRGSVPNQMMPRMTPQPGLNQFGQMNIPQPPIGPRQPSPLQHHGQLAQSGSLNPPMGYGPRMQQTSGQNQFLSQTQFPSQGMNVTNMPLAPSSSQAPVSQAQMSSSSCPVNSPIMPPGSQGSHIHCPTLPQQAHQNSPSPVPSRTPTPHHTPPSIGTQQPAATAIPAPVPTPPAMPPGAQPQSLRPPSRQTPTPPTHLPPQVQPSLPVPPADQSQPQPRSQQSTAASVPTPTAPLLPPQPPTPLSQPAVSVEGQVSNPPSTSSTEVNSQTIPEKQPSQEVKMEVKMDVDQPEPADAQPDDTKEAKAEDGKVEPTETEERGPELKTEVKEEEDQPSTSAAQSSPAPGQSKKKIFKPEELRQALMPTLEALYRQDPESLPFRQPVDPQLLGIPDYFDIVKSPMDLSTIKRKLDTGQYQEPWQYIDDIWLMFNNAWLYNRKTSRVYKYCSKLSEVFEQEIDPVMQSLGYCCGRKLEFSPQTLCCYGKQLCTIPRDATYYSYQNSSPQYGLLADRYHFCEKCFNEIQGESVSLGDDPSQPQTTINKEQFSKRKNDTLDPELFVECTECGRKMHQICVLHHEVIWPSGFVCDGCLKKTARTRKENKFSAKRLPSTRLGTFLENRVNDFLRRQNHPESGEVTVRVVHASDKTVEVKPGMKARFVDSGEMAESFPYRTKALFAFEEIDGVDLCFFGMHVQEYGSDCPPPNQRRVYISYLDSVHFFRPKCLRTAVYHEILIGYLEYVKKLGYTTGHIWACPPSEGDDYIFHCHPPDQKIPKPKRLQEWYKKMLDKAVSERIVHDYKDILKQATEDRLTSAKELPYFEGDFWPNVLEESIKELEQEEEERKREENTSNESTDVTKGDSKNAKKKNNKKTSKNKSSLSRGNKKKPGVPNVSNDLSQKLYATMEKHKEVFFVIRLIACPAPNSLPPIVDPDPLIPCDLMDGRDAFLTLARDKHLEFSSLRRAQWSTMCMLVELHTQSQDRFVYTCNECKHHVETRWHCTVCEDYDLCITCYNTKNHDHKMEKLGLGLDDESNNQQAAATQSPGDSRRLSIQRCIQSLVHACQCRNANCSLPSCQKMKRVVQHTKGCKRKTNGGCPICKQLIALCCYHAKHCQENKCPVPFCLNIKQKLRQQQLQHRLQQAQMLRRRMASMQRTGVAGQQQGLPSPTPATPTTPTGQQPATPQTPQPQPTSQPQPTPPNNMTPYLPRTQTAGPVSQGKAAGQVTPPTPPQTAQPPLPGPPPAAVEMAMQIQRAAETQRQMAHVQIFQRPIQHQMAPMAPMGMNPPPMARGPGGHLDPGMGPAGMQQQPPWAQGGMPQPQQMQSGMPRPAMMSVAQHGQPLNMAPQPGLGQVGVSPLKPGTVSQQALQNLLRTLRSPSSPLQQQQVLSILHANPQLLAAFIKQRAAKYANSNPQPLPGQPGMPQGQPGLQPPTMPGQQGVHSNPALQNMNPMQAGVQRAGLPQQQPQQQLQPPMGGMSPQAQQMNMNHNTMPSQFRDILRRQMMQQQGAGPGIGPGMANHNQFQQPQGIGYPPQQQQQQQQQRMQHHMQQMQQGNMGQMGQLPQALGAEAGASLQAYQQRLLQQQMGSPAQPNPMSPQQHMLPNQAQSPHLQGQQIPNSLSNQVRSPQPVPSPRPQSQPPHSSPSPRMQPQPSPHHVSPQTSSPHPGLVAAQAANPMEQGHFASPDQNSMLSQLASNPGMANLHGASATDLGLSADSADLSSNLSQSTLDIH

EAE mice = assay: Visual evoked potential (VEP) analyses on EAE mice (FIG. 17); type: in vivo; conditions: EAE mice at the peak of disease, versus Vehicle
Experimental: FIG. 17. Visual evoked potential (VEP) analyses were carried out on EAE mice treated with Vehicle and compound I-1 at the peak of disease. This method generally follows that found in YOU et al. (2011) “Latency delay of visual evoked potential is a real measurement of demyelination in a rat model of optic neuritis” Invest Ophthalmol Vis Sci, Vol. 52, pp. 6911-6918.

[1] = tested on: experimental autoimmune encephalomyelitis (EAE) demyelinating mouse model; assay: EAE demyelinating mouse model induced by myelin peptide MOG35-55 (FIG. 7); type: in vivo; conditions: EAE mice
From the text: FIG. 7. This method generally follows that found in WANG et al. (2017) “miR-219 Cooperates with miR-338 in Myelination and Promotes Myelin Repair in the CNS” Dev Cell, Vol. 40, pp. 566-582.

[2] = tested on: Primary oligodendrocyte progenitor cells (OPCs); assay: Rat primary OPC differentiation, immunostaining for MBP, OLIG2 and/or cleaved Caspase 3 (FIGS. 1-6); type: cell-based
From the text: FIGS. 1-6. Primary oligodendrocyte progenitor cells (OPCs) were obtained from newborn rat brains after preparation of mixed glial cultures. This method generally follows that found in ZHAO et al. (2018) “Dual Requirement of CHD8 for Chromatin Landscape Establishment and Histone Methyltransferase Recruitment to Promote CNS Myelination and Repair” Dev Cell, Vol. 45, pp. 753-768. Briefly, mixed glial cells were initially cultured in DMEM-F12 medium supplied with 15% FBS, then switched to B104 conditioned medium for 2 days before isolating OPCs by mechanical detachment in an orbital shaker. Isolated rat OPCs were grown in Sato growth medium supplemented with mitogens 10 ng/ml PDGF-AA and 10 ng/ml bFGF. OPCs were then treated with indicated compounds and immunostained with oligodendrocyte myelination markers MBP and OLIG2, and/or a cell death marker cleaved Caspase 3. T3 ((2S)-2-amino-3-[4-(4-hydroxy-3-iodophenoxy)-3,5-diiodophenyl]propanoic acid; CAS 6893-02-3) was used as a positive control; the T3 concentration used was 15 nm.

[3] = tested on: Rat oligodendrocyte progenitor cells (OPCs); assay: Rat OPC differentiation, MBP and Olig2 immunostaining after 48 h treatment (FIG. 18); type: cell-based; conditions: for OPC differentiation (MBP, Olig2 immunostaining): at the indicated concentration
Experimental: FIG. 18. Methods: This method generally follows that found in WANG et al. (2017) “miR-219 Cooperates with miR-338 in Myelination and Promotes Myelin Repair in the CNS” Dev Cell, Vol. 40, pp. 566-582. Rat oligodendrocyte progenitor cells (OPCs) were seeded on coverslip and treated with compounds, I-1, I-16, I-15, I-13, I-8, and I-17 at the indicated concentration. Cells were immunostained with a mature oligodendrocyte marker MBP and an oligodendrocyte lineage marker Olig2 after 48 h treatment.

`CNC(=O)Nc1ccc2c(c1)CC[C@@]21OC(=O)N(CC(=O)N(Cc2ccc(F)cc2)[C@@H](C)C(F)(F)F)C1=O` [Compound A485] was tested, and the p300 activity (p300) was “inhibits p300 activity”.
For `Nc1ccccc1NC(=O)c1cnc(NCc2ccccc2)cn1` [Compound I-1], the “VEP N1 signals” value (EAE mice) was “showed greater and faster conducting VEP N1 signals”, the functional regeneration [1] was “promotes functional regeneration” and the “EAE disease severity / motor function (clinical scores)” value ([1]; MOG35-55 induced) was “improved motor function reflected in clinical scores; also recorded: reduced EAE disease severity”. The “myelin MBP+ cell formation 3 days after treatment” value ([2]; 3 days after treatment, FIG. 6) was “enhances myelin MBP+ cell formation”, the “myelin MBP+ cell formation” value ([2]; FIG. 5) was “enhances myelin MBP+ cell formation” and the “oligodendrocyte differentiation and myelination in vitro” value ([2]; rat OPCs, MBP/OLIG2 immunostaining, FIGS. 1-6) was “promoted oligodendrocyte differentiation and myelination in vitro”. For the same compound, the OPC differentiation ([2]; rat primary OPCs, FIGS. 1, 3, 4) was “promotes oligodendrocyte progenitor cell (OPC) differentiation”, the “myelin formation in presence of A485” value ([2]; with p300 inhibitor A485, FIG. 2) was “appears to overcome A485 inhibition to enhance myelin formation” and the “OPC differentiation (MBP, Olig2 immunostaining)” value [3] was “promote OPC differentiation”.
In the case of `Nc1ccccc1NC(=O)c1cnc(NC(c2ccccc2)c2ccccc2)cn1` [Compound I-8], the “activity in promoting OPC into mature oligodendrocytes relative to compound I-1” value [3] is reported as “comparable activity with compound I-1” and the “OPC differentiation (MBP, Olig2 immunostaining)” value [3] is reported as “promote OPC differentiation”.
In the case of `Nc1ccccc1NC(=O)c1cnc(NC(=O)C(c2ccccc2)c2ccccc2)cn1` [Compound I-13], the “OPC differentiation (MBP, Olig2 immunostaining)” value [3] is reported as “promote OPC differentiation”.
In the case of `Nc1ccccc1NC(=O)c1cnc(NC2=N[C@H](c3ccccc3)[C@H](c3ccccc3)O2)cn1` [Compound I-15], the “OPC differentiation (MBP, Olig2 immunostaining)” value [3] is reported as “promote OPC differentiation”.
`CC(C(=O)Nc1cnc(C(=O)Nc2ccccc2N)cn1)c1ccccc1` (centres unmarked) [Compound I-16] was tested, and the “OPC differentiation (MBP, Olig2 immunostaining)” value [3] was “promote OPC differentiation”.
In the case of `Nc1ccccc1NC(=O)c1cnc(NC(=O)C(N)c2ccccc2)cn1` (centres unmarked) [Compound I-17], the “activity in promoting OPC into mature oligodendrocytes relative to compound I-1” value [3] is reported as “comparable activity with compound I-1” and the “OPC differentiation (MBP, Olig2 immunostaining)” value [3] is reported as “promote OPC differentiation”.
